Assay results from patent US12581252B2, “Substituted pyrrolo[3,4-b]pyridines as PI3K-α inhibitors” (Relay Therapeutics, Inc., priority 2020, dated 2026).

The molecules below were run against H1047R PIK3CA enzyme (Homo sapiens, UniProt P42336, H1047R) (assay: ADP-Glo Biochemical PIK3CA Kinase Assay).
H1047R PIK3CA enzyme, sequence (P42336 whole entry H1047R): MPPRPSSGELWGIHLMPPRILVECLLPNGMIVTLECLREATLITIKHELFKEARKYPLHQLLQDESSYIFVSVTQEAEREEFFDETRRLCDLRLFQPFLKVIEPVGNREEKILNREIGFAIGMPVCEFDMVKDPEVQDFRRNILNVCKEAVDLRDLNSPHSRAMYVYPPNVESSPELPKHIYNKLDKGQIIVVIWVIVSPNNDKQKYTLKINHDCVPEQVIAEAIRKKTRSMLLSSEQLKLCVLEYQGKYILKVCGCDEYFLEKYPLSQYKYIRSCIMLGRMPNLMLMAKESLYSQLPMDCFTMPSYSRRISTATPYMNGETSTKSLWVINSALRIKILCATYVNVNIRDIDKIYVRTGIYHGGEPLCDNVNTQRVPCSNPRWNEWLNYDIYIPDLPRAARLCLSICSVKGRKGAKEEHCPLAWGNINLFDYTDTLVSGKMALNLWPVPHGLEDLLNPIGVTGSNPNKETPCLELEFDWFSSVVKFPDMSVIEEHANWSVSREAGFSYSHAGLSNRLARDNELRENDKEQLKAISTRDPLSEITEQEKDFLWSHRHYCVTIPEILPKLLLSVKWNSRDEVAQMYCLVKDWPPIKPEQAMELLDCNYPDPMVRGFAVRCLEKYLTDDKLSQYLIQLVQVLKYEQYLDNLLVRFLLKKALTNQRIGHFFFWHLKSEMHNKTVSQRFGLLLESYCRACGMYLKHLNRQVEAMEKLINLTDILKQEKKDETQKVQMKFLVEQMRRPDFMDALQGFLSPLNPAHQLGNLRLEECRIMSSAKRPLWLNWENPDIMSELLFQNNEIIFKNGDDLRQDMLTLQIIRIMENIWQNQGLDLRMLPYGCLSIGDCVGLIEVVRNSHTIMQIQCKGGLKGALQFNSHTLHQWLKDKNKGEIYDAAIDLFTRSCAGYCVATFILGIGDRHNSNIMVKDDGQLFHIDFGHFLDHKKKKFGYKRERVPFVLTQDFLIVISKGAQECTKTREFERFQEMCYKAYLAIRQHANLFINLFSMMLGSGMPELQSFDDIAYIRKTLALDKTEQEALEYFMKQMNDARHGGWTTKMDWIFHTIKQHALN
H1047R PIK3CA enzyme, sequence (P27986 whole entry partner): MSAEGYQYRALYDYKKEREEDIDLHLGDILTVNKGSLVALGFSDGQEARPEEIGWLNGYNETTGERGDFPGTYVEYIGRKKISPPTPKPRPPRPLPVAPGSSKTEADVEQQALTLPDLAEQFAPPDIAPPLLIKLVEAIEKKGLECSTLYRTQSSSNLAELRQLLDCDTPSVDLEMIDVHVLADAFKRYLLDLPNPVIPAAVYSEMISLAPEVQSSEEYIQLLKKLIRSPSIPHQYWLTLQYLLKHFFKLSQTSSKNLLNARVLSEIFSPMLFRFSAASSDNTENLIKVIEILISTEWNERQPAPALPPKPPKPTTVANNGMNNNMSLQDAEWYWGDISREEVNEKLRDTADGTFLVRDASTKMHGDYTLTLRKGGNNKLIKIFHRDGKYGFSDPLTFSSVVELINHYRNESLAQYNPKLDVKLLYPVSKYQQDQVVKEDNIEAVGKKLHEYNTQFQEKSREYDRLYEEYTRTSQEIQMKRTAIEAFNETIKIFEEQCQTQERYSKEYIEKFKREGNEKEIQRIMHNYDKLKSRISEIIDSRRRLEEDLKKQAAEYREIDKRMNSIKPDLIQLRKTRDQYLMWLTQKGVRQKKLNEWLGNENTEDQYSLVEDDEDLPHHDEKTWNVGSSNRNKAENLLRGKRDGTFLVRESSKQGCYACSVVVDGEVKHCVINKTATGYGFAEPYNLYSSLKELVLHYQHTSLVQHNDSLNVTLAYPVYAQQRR
For `Cc1ccccc1C1NC(=O)c2cccc(NC(=O)c3n[nH]cc3Br)c21` (centres unmarked) [Compound I-411], the IC50 was 10 to 100 µM. Molecule `O=C(Nc1cc(N2CC3(CCN3)C2)cc2c1C(c1cc(F)ccc1Cl)NC2=O)c1cc(F)cc(C(F)(F)F)c1` (centres unmarked) [Compound I-1388] has an IC50 of 0.1 to 0.5 µM. Molecule `O=C(Nc1cc(-c2ccc3cc[nH]c3c2)cc2c1C(c1cc(F)ccc1Cl)NC2=O)c1cc(F)cc(C(F)(F)F)c1` (centres unmarked) [Compound I-855] has an IC50 of 0.1 to 0.5 µM. `CC(C)(O)c1cc(NC(=O)c2cc(F)cc(C(F)(F)F)c2)c2c(c1)C(=O)NC2c1ccccc1Cl` (centres unmarked) [Compound I-439] was tested, and the IC50 was 0.1 to 0.5 µM. In the case of `COc1ccnc(Oc2cc(NC(=O)c3cc(F)cc(C(F)(F)F)c3)c3c(c2)C(=O)NC3c2cc(F)ccc2Cl)n1` (centres unmarked) [Compound I-1143], the IC50 is reported as 0.1 to 0.5 µM. In the case of `Cc1ccccc1C1NC(=O)c2cccc(NC(=O)c3nc(C)c4c(F)cc(F)cn34)c21` (centres unmarked) [Compound I-342], the IC50 is reported as 10 to 100 µM. With `O=C(Nc1cc(N2CC(O)C2)nc2c1C(c1cc(F)ccc1Cl)NC2=O)c1cc(F)cc(C(F)(F)F)c1` (centres unmarked) [Compound I-575] the IC50 was no more than 0.1 µM. `O=C(Nc1cc(-c2cnc(-c3ncco3)nc2)cc2c1C(c1cc(F)ccc1Cl)NC2=O)c1cc(F)cc(C(F)(F)F)c1` (centres unmarked) [Compound I-1464] gave an IC50 of no more than 0.1 µM. Molecule `O=C1NC(c2cc(F)ccc2Cl)c2c(NC(=O)C3CC4(C3)CC(F)(F)C4)cc(Br)cc21` (centres unmarked) [Compound I-1622] has an IC50 of 1 to 10 µM. `O=C1NC(c2cc(F)ccc2Cl)c2c(Cn3ccc4ccccc4c3=O)cc(-c3ccc4ncnn4c3)cc21` (centres unmarked) [Compound I-2026] gave an IC50 of 10 to 100 µM. With `Nc1cc(C2NC(=O)c3cccc(NC(=O)c4cc(F)cc(C(F)(F)F)c4)c32)ccn1` (centres unmarked) [Compound I-828] the IC50 was 10 to 100 µM. For `O=C1N[C@H](c2cc(F)ccc2Cl)c2c(NC(=O)N3C[C@@H](O)c4cc(F)ccc43)cc(-n3ccnn3)cc21` (single isomer, unassigned) [Compound I-2371], the IC50 was 1 to 10 µM. Molecule `N#CCc1ccc(NC(=O)N2C[C@@](O)(C(F)(F)F)c3cc(F)ccc32)c2c1C(=O)N[C@H]2c1cc(F)ccc1Cl` (single isomer, unassigned) [Compound I-2616] has an IC50 of 1 to 10 µM. `O=C(Nc1cc(C2COC2)cc2c1[C@H](c1cc(F)ccc1Cl)NC2=O)c1cc(F)cc(C(F)(F)F)c1` [Compound I-590] gave an IC50 of no more than 0.1 µM. In the case of `NC1CCCCC1C(=O)Nc1cc(-c2ccc3ncnn3c2)cc2c1C(c1cc(F)ccc1Cl)NC2=O` (centres unmarked) [Compound I-1982], the IC50 is reported as 10 to 100 µM. Molecule `CC1(Cc2cc(NC(=O)N3C[C@@](O)(C(F)(F)F)c4cc(F)ccc43)c3c(c2)C(=O)N[C@H]3c2cc(F)ccc2Cl)COC1` (single isomer, unassigned) [Compound I-2660] has an IC50 of 10 to 100 µM. Molecule `Cc1ncc(-c2cc(NC(=O)c3cc(F)cc(C(F)(F)F)c3)c3c(n2)C(=O)NC3c2cc(F)ccc2Cl)s1` (centres unmarked) [Compound I-546] has an IC50 of no more than 0.1 µM. `O=C1N[C@@H](c2cc(F)ccc2Cl)c2c(NC(=O)N3C[C@@](O)(C(F)(F)F)c4cc(F)ccc43)cc(-n3ccccc3=O)cc21` (single isomer, unassigned) [Compound I-2530] gave an IC50 of 1 to 10 µM. For `C[C@](O)(CC#N)c1cc(NC(=O)c2cc(F)cc(C(F)(F)F)c2)c2c(c1)C(=O)N[C@@H]2c1cc(F)ccc1Cl` (single isomer, unassigned) [Compound I-1396], the IC50 was 1 to 10 µM. For `O=C(Nc1cc(-c2ccc3ncnn3c2)cc2c1[C@@H](c1cc(F)ccc1Cl)NC2=O)c1cccc(C(F)(F)F)c1` (stereo in doubt) [Compound I-1116], the IC50 was 10 to 100 µM. In the case of `N#Cc1cnc2ccc(-c3cc(NC(=O)c4cc(F)cc(C(F)(F)F)c4)c4c(c3)C(=O)N[C@H]4c3cc(F)ccc3Cl)cn12` [Compound I-1443], the IC50 is reported as no more than 0.1 µM. `N#C[C@H]1C[C@H](Oc2cc(NC(=O)c3cc(F)cc(C(F)(F)F)c3)c3c(c2)C(=O)N[C@@H]3c2cc(F)ccc2Cl)C1` (stereo in doubt) [Compound I-1304] was tested, and the IC50 was 1 to 10 µM. For `CC(C)(C)OC(=O)NCCSc1cc(NC(=O)c2cc(F)cc(C(F)(F)F)c2)c2c(c1)C(=O)NC2c1cc(F)ccc1Cl` (centres unmarked) [Compound I-1297], the IC50 was 0.1 to 0.5 µM. With `O=C(Nc1cc(-c2ccc3ncnn3c2)nc2c1C(C1CCOCC1)NC2=O)c1cc(F)cc(C(F)(F)F)c1` (centres unmarked) [Compound I-1705] the IC50 was 10 to 100 µM. `Cc1nn(C(=O)Nc2cccc3c2C(c2cc(F)ccc2Cl)NC3=O)c2ccccc12` (centres unmarked) [Compound I-2380] was tested, and the IC50 was 0.5 to 1 µM. Molecule `Cn1nccc1C(O)c1cc(NC(=O)c2cc(F)cc(C(F)(F)F)c2)c2c(c1)C(=O)NC2c1cc(F)ccc1Cl` (centres unmarked) [Compound I-1389] has an IC50 of no more than 0.1 µM. For `Cc1ccccc1C1NC(=O)c2cc(C#N)cc(NC(=O)c3nsc4ccccc34)c21` (centres unmarked) [Compound I-116], the IC50 was no more than 0.1 µM. Work on `O=C(Nc1cc(Cc2ccc3c(c2)CNC3=O)cc2c1C(c1cc(F)ccc1Cl)NC2=O)c1cc(F)cc(C(F)(F)F)c1` (centres unmarked) [Compound I-1496] yielded an IC50 of no more than 0.1 µM. In the case of `O=C(Nc1cc(N2CCn3ccnc3C2)cc2c1C(c1cc(F)ccc1Cl)NC2=O)c1cc(F)cc(C(F)(F)F)c1` (centres unmarked) [Compound I-1236], the IC50 is reported as no more than 0.1 µM. In the case of `N#Cc1cnc2cnc(-c3cc(NC(=O)c4cc(F)cc(C(F)(F)F)c4)c4c(c3)C(=O)NC4c3cc(F)ccc3Cl)cn12` (centres unmarked) [Compound I-1767], the IC50 is reported as no more than 0.1 µM. Work on `O=C1NC(c2cc(F)ccc2Cl)c2c(NC(=O)c3coc4c(F)cc(F)cc34)cc(Br)cc21` (centres unmarked) [Compound I-731] yielded an IC50 of no more than 0.1 µM. In the case of `O=C(Nc1cccc2c1C(c1cc(F)ccc1Cl)NC2=O)c1cc(C(F)(F)F)cc(Cl)n1` (centres unmarked) [Compound I-724], the IC50 is reported as 1 to 10 µM. Work on `Cc1cc(=O)[nH]cc1C(=O)Nc1cc(Br)cc2c1[C@H](c1cc(F)ccc1Cl)NC2=O` [Compound I-2108] yielded an IC50 of 10 to 100 µM. For `O=C(Nc1cc(Nc2ccno2)cc2c1C(c1cc(F)ccc1Cl)NC2=O)c1cc(F)cc(C(F)(F)F)c1` (centres unmarked) [Compound I-1115], the IC50 was no more than 0.1 µM. `O=C(CO)Nc1cc(NC(=O)c2cc(F)cc(C(F)(F)F)c2)c2c(c1)C(=O)NC2c1cc(F)ccc1Cl` (centres unmarked) [Compound I-345] showed an IC50 of no more than 0.1 µM. In the case of `Cn1cncc1-c1cc(NC(=O)c2cc(F)cc(C(F)(F)F)c2)c2c(c1)C(=O)NC2c1cc(F)ccc1Cl` (centres unmarked) [Compound I-1272], the IC50 is reported as no more than 0.1 µM. With `O=C1NC(c2cc(F)ccc2Cl)c2c(NC(=O)N3CCC4C(C3)C4C(F)(F)F)cc(Br)cc21` (centres unmarked) [Compound I-1756] the IC50 was 1 to 10 µM. Molecule `O=C1NC(c2cc(F)ccc2Cl)c2c(NC(=O)N3CCC3c3ccccc3)cccc21` (centres unmarked) [Compound I-2321] has an IC50 of 10 to 100 µM. `O=C(Nc1cc(-c2ccc3ncccc3c2)cc2c1C(c1cc(F)ccc1Cl)NC2=O)c1cc(F)cc(C(F)(F)F)c1` (centres unmarked) [Compound I-737] gave an IC50 of no more than 0.1 µM. Work on `O=C(Nc1cc(CS(=O)(=O)c2ncccn2)cc2c1C(c1cc(F)ccc1Cl)NC2=O)c1cc(F)cc(C(F)(F)F)c1` (centres unmarked) [Compound I-1570] yielded an IC50 of no more than 0.1 µM. `NC1CCC(C(=O)Nc2cc(-c3ccc4ncnn4c3)cc3c2C(c2cc(F)ccc2Cl)NC3=O)CC1` (centres unmarked) [Compound I-1759] was tested, and the IC50 was 10 to 100 µM. `O=C(Nc1cc(-c2ccn3ccnc3c2)cc2c1[C@@H](c1cc(F)ccc1Cl)NC2=O)c1cc(F)cc(C(F)(F)F)c1` [Compound I-1451] was tested, and the IC50 was 0.1 to 0.5 µM. Molecule `O=C(Nc1cccc2c1C([C@H]1CCCC[C@@H]1O)NC2=O)c1cc(F)cc(C(F)(F)F)c1` (single isomer, unassigned) [Compound I-1972] has an IC50 of 10 to 100 µM. In the case of `O=C1N[C@@H](c2cc(F)ccc2Cl)c2c(NC(=O)N3C[C@@H](O)c4cc(F)ccc43)cc(-n3cccn3)cc21` (single isomer, unassigned) [Compound I-2366], the IC50 is reported as 1 to 10 µM. Molecule `C[C@H](C#N)Oc1cc(NC(=O)c2cc(F)cc(C(F)(F)F)c2)c2c(c1)C(=O)N[C@@H]2c1cc(F)ccc1Cl` (single isomer, unassigned) [Compound I-2005] has an IC50 of 1 to 10 µM. Molecule `CN1CCO/C1=N\c1cc(NC(=O)c2cc(F)cc(C(F)(F)F)c2)c2c(c1)C(=O)NC2c1cc(F)ccc1Cl` (centres unmarked) [Compound I-2202] has an IC50 of 0.1 to 0.5 µM. `N#CCCN(C(=O)c1cc(F)cc(C(F)(F)F)c1)c1cc(O)cc2c1C(c1cc(F)ccc1Cl)NC2=O` (centres unmarked) [Compound I-2251] was tested, and the IC50 was 10 to 100 µM. `O=C(Nc1cc(-c2ccn3cncc3c2)cc2c1C(c1cc(F)ccc1Cl)NC2=O)c1cc(F)cc(C(F)(F)F)c1` (centres unmarked) [Compound I-1503] gave an IC50 of no more than 0.1 µM. Molecule `O=C(Nc1cccc2c1C(c1ccc3ccccc3c1)NC2=O)c1cc(F)cc(C(F)(F)F)c1` (centres unmarked) [Compound I-371] has an IC50 of 10 to 100 µM. Molecule `O=C(Nc1cc(-c2ccc3nc(C(F)F)nn3c2)cc2c1[C@@H](c1cc(F)ccc1Cl)NC2=O)c1cc(F)cc(C(F)(F)F)c1` [Compound I-1986] has an IC50 of 1 to 10 µM. Work on `O=C1N[C@@H](c2cc(F)ccc2Cl)c2c(NC(=O)[C@H]3CC[C@@H](O)C3)cc(Br)cc21` (single isomer, unassigned) [Compound I-2102] yielded an IC50 of 10 to 100 µM. `O=C1N[C@H](c2cc(F)ccc2Cl)c2c(NC(=O)[C@@H]3CCCCN3)cc(-c3ccc4ncnn4c3)cc21` [Compound I-2146] showed an IC50 of 10 to 100 µM. Work on `O=C(Nc1cc(Br)cc2c1[C@H](c1cc(F)c(F)cc1Cl)NC2=O)c1cc(F)cc(C(F)(F)F)c1` [Compound I-677] yielded an IC50 of no more than 0.1 µM. With `Cc1ncc(-c2cc(NC(=O)c3cc(F)cc(C(F)(F)F)c3)c3c(n2)C(=O)N[C@@H]3c2cc(F)ccc2Cl)cn1` [Compound I-652] the IC50 was 0.5 to 1 µM. With `O=C(Nc1cc(-c2ccc3ncnn3c2)cc2c1[C@@H](c1cc(F)ccc1Cl)NC2=O)c1cc(F)cc(OC(F)F)c1` (stereo in doubt) [Compound I-1170] the IC50 was 10 to 100 µM. In the case of `O=C(Nc1cc(Br)cc2c1C(c1cc(F)cc(F)c1Cl)NC2=O)c1cc(F)cc(C(F)(F)F)c1` (centres unmarked) [Compound I-807], the IC50 is reported as no more than 0.1 µM. With `[2H]c1nc2ccc(-c3cc(NC(=O)c4cc(F)cc(C(F)(F)F)c4)c4c(c3)C(=O)N[C@H]4c3cc(F)ccc3Cl)cn2n1` (stereo in doubt) [Compound I-1785] the IC50 was no more than 0.1 µM. For `O=C1N[C@@H](c2cc(F)ccc2Cl)c2c(NC(=O)N3C[C@H](O)c4cc(F)ccc43)cc(-n3nccn3)cc21` (single isomer, unassigned) [Compound I-2343], the IC50 was 1 to 10 µM. For `C[C@@H](CCC(F)(F)F)C(=O)Nc1cccc2c1[C@H](c1cc(F)ccc1Cl)NC2=O` [Compound I-2138], the IC50 was 1 to 10 µM. Molecule `CNC(=O)c1ncc(-c2cc(NC(=O)c3cc(F)cc(C(F)(F)F)c3)c3c(c2)C(=O)NC3c2cc(F)ccc2Cl)cn1` (centres unmarked) [Compound I-1506] has an IC50 of 0.1 to 0.5 µM. `O=C(Nc1cc(Br)cc2c1C(c1cc(F)ccc1Cl)NC2=O)c1cc(F)cc(F)c1` (centres unmarked) [Compound I-468] gave an IC50 of 0.1 to 0.5 µM. `O=C(Nc1cc(N2CCOc3ccccc32)cc2c1C(c1cc(F)ccc1Cl)NC2=O)c1cc(F)cc(C(F)(F)F)c1` (centres unmarked) [Compound I-1189] was tested, and the IC50 was no more than 0.1 µM.
